Data published in ChEMBL document CHEMBL3991601, “The target landscape of clinical kinase drugs” (Science, 2017).
The source made the active and inactive calls.

Key:
[1] = target: RAC-alpha serine/threonine-protein kinase (Homo sapiens, UniProt P31749)
[2] = target: Mitogen-activated protein kinase 3 (Homo sapiens, UniProt P27361)
[3] = target: Casein kinase I isoform delta (Homo sapiens, UniProt P48730)
[4] = target: S-adenosylmethionine synthase isoform type-2 (Homo sapiens, UniProt P31153)
[5] = target: T1, Tyrosine--tRNA ligase, cytoplasmic (Homo sapiens, UniProt P54577)
T1 sequence (P54577 whole entry): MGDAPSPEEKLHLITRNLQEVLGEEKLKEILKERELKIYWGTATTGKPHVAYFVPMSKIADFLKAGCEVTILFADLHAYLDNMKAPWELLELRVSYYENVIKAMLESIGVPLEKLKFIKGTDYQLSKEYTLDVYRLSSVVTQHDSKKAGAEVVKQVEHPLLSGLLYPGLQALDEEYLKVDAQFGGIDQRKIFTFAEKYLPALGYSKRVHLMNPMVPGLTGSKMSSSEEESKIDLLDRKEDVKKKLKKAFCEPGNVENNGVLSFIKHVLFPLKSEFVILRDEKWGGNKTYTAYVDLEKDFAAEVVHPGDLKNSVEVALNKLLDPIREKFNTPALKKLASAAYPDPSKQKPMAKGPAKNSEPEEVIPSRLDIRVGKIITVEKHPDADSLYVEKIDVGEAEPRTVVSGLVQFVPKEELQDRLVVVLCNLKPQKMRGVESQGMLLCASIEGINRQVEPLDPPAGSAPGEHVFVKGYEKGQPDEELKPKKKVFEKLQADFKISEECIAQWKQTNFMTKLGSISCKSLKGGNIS

[6] = target: Protein-tyrosine kinase 6 (Homo sapiens, UniProt Q13882)
[7] = target: Casein kinase I isoform gamma-1 (Homo sapiens, UniProt Q9HCP0)
Sequence of Casein kinase I isoform gamma-1 (Q9HCP0 whole entry, canonical isoform): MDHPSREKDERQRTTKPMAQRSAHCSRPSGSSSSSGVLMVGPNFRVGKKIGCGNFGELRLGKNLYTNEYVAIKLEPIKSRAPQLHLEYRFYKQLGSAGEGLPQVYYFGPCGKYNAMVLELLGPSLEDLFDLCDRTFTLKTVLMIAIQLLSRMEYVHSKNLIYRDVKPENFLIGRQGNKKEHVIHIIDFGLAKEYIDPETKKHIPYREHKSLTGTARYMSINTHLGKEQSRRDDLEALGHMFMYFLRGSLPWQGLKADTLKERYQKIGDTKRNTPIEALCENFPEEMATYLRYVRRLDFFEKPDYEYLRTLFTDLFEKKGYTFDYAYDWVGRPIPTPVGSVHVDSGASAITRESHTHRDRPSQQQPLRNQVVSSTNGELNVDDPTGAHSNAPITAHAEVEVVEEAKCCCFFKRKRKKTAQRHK

[8] = target: MAP/microtubule affinity-regulating kinase 3 (Homo sapiens, UniProt P27448)
Sequence of MAP/microtubule affinity-regulating kinase 3 (P27448 whole entry): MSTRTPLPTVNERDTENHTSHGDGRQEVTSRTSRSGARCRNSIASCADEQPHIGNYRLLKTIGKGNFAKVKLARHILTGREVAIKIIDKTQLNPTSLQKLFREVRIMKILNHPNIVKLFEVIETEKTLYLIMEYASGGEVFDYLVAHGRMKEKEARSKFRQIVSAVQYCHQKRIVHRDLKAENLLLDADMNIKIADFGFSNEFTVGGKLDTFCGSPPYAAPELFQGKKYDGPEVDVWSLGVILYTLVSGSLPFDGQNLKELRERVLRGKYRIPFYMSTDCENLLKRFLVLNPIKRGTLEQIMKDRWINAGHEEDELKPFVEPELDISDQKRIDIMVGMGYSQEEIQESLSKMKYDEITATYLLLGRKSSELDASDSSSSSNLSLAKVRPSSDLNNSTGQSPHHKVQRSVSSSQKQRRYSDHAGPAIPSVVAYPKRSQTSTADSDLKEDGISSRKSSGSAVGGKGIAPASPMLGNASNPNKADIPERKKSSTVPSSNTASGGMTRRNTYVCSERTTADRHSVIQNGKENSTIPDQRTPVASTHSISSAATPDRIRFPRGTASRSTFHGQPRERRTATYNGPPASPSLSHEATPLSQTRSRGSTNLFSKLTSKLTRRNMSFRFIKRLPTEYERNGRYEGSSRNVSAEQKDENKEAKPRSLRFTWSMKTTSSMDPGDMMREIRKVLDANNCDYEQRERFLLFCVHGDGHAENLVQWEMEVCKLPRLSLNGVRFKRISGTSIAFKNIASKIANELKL

[9] = target: Rho-associated protein kinase 2 (Homo sapiens, UniProt O75116)
Sequence of Rho-associated protein kinase 2 (O75116 whole entry): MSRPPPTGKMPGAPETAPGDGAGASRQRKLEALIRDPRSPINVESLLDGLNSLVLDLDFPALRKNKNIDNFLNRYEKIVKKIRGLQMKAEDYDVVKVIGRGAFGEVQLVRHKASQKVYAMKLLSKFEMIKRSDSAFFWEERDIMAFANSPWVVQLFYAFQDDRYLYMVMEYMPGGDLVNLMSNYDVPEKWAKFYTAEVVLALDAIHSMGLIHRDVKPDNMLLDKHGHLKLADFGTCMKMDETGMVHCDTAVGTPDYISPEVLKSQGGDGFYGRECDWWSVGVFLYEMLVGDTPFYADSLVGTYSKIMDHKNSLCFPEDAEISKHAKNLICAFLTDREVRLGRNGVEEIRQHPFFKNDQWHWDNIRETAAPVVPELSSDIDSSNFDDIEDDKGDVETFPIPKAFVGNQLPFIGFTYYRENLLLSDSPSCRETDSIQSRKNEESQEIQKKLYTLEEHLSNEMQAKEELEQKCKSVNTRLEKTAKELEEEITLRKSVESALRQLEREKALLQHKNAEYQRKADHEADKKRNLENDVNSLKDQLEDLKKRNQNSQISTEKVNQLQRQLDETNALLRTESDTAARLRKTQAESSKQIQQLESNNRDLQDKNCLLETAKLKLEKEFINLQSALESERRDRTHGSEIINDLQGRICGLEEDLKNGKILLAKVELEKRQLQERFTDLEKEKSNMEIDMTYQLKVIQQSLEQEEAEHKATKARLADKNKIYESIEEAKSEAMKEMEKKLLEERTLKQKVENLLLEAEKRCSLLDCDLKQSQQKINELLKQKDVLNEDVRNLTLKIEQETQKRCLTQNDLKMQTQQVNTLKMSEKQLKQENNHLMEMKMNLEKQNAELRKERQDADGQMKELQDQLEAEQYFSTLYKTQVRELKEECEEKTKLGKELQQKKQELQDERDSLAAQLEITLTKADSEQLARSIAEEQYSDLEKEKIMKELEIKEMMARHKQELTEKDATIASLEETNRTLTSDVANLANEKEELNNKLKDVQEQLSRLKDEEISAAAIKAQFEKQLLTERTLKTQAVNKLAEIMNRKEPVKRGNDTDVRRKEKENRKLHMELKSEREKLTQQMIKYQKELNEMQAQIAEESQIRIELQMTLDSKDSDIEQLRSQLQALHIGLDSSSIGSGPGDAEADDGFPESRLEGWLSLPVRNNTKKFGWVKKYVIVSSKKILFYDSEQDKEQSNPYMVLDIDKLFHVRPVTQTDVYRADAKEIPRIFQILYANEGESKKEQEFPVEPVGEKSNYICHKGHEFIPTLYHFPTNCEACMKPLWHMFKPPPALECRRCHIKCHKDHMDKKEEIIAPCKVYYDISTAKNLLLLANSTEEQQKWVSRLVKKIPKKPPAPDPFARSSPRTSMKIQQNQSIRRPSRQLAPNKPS

[10] = target: cAMP-dependent protein kinase catalytic subunit gamma (Homo sapiens, UniProt P22612)
Sequence of cAMP-dependent protein kinase catalytic subunit gamma (P22612 whole entry): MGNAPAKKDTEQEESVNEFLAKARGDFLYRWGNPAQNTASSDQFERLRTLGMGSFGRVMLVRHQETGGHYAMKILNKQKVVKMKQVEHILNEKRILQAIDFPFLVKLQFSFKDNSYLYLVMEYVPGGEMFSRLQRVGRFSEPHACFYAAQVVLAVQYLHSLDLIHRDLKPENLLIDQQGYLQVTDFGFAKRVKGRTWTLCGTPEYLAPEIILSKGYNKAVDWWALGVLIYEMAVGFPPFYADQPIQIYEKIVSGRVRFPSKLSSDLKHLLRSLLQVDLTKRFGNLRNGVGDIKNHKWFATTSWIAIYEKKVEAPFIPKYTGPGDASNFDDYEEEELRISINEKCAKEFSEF

[11] = target: Putative heat shock protein HSP 90-beta 2 (Homo sapiens, UniProt Q58FF8)
Sequence of Putative heat shock protein HSP 90-beta 2 (Q58FF8 whole entry): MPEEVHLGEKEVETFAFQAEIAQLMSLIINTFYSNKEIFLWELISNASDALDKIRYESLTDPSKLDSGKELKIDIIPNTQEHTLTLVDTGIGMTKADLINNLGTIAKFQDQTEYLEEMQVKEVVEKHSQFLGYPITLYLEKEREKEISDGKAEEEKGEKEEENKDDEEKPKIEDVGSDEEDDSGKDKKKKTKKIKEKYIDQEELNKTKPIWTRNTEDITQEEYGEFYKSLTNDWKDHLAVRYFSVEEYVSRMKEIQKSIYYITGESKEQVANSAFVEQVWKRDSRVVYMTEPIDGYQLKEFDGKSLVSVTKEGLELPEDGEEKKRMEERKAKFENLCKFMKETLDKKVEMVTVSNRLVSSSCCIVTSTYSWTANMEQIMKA

[12] = target: T2, Cytochrome c1, heme protein, mitochondrial (Homo sapiens, UniProt P08574)
T2 sequence (P08574 whole entry): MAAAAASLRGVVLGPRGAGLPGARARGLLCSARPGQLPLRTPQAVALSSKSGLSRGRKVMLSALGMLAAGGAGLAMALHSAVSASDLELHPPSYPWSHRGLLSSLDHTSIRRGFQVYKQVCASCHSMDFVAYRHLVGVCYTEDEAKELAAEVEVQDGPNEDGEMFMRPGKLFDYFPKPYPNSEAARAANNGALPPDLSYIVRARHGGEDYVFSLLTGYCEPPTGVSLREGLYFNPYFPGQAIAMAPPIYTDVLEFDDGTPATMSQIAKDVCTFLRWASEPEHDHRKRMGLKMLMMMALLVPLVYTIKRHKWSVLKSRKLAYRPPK

[13] = target: T3, Long-chain-fatty-acid--CoA ligase 5 (Homo sapiens, UniProt Q9ULC5)
T3 sequence (Q9ULC5 whole entry): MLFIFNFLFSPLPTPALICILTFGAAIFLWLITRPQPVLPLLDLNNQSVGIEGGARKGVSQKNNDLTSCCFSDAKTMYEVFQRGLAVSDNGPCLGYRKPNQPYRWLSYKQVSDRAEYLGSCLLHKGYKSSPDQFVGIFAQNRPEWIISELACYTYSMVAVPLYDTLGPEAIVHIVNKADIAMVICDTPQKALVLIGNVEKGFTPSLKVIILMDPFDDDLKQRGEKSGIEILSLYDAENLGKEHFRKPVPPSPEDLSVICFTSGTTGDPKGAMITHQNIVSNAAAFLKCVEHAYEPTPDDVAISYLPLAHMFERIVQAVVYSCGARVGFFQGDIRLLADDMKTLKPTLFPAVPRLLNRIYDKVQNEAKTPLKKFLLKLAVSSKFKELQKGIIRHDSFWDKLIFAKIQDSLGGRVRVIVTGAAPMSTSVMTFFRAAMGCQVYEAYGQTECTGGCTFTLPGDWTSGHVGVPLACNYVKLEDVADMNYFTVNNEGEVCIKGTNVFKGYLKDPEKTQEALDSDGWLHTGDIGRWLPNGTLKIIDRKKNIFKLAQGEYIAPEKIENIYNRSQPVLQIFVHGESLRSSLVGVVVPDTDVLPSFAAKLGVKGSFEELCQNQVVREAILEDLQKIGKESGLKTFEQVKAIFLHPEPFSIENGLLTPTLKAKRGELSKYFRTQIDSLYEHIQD

[14] = target: T4, Phosphatidylinositol 5-phosphate 4-kinase type-2 alpha (Homo sapiens, UniProt P48426)
T4 sequence (P48426 whole entry): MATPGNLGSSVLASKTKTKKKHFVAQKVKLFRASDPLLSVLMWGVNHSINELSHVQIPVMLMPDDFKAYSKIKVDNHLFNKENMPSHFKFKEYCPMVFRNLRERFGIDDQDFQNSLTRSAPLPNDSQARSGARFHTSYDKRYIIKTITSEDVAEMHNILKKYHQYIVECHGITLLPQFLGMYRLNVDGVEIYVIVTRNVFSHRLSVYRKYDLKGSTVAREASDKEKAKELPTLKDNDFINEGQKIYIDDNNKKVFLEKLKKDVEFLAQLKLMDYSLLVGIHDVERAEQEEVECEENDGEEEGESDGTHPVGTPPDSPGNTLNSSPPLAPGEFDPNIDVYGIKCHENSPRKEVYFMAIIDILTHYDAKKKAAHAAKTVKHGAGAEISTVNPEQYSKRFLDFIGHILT
Further: in the data inactive means no Kd found up to 30 µM.

Sequence of Mitogen-activated protein kinase 3 (P27361 whole entry, canonical isoform): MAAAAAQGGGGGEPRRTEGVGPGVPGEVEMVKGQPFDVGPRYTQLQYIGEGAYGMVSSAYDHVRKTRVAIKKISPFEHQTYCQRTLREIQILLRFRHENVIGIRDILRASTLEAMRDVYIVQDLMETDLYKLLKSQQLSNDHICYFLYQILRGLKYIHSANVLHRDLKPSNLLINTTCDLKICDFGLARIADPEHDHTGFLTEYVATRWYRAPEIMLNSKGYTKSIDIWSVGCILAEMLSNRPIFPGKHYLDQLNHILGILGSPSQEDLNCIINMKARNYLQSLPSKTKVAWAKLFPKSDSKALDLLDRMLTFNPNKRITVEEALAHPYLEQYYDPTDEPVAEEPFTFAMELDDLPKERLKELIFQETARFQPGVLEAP
Sequence of RAC-alpha serine/threonine-protein kinase (P31749 whole entry): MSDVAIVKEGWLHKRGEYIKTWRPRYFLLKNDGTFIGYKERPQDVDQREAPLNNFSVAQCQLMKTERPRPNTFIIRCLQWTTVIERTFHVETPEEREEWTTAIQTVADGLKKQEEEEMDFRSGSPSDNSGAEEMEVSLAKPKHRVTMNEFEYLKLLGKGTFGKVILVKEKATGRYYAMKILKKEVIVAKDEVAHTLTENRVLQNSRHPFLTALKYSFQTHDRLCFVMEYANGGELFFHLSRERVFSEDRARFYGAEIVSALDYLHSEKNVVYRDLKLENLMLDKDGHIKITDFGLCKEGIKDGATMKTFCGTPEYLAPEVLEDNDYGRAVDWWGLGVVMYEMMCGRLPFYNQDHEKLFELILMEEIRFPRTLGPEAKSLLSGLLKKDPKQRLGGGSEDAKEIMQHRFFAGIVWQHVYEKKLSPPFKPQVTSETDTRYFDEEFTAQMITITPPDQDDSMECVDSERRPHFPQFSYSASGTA
Sequence of Casein kinase I isoform delta (P48730 whole entry, canonical isoform): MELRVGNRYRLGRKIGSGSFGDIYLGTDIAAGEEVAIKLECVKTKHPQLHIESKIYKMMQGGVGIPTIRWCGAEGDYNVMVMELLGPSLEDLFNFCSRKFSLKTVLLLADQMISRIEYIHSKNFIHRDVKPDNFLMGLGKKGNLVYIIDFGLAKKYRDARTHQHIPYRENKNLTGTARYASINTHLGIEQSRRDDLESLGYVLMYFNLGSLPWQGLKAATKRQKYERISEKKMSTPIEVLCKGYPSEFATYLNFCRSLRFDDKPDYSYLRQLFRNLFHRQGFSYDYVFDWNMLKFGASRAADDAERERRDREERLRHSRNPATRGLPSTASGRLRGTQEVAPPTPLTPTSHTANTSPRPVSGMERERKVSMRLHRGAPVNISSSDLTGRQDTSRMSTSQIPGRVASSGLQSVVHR
Sequence of S-adenosylmethionine synthase isoform type-2 (P31153 whole entry, canonical isoform): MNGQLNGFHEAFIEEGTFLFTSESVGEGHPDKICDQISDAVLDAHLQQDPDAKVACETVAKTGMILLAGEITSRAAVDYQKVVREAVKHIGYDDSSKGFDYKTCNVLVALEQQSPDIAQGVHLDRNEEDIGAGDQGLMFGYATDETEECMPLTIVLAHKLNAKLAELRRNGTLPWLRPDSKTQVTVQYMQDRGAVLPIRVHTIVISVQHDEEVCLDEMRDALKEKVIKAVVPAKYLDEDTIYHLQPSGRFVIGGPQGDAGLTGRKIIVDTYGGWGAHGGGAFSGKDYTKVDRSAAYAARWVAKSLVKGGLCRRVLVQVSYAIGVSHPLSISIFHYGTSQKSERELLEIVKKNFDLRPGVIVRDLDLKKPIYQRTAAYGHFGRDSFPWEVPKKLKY

| Compound | Kd [1] | Kd [2] | Kd [3] | Kd [4] | Kd [5] | Kd [6] | Kd [7] | Kd [8] | Kd [9] | Kd [11] | Kd [12] | Kd [13] | Kd [14] | Kd [10] |
| --- | --- | --- | --- | --- | --- | --- | --- | --- | --- | --- | --- | --- | --- | --- |
| Cc1c(NC(=O)OC[C@@H]2COCCN2)cn2ncnc(Nc3ccc4c(cnn4Cc4cccc(F)c4)c3)c12 [AC-480] | > 30 µM (inactive) | > 30 µM (inactive) | > 30 µM (inactive) | > 30 µM (inactive) | > 30 µM (inactive) | > 30 µM (inactive) | > 30 µM (inactive) | > 30 µM (inactive) | > 30 µM (inactive) | > 30 µM (inactive) | > 30 µM (inactive) | > 30 µM (inactive) | – | > 30 µM (inactive) |
| NC[C@@](O)(c1ccc(Cl)cc1)c1ccc(-c2cn[nH]c2)cc1 [AT-13148] | > 30 µM (inactive) | > 30 µM (inactive) | > 30 µM (inactive) | > 30 µM (inactive) | > 30 µM (inactive) | > 30 µM (inactive) | > 30 µM (inactive) | > 30 µM (inactive) | 0.026 µM (active) | > 30 µM (inactive) | > 30 µM (inactive) | > 30 µM (inactive) | > 30 µM (inactive) | – |
| CN1CCN(c2nc(C3=C(c4c[nH]c5ccccc45)C(=O)NC3=O)c3ccccc3n2)CC1 [SOTRASTAURIN] | > 30 µM (inactive) | > 30 µM (inactive) | > 30 µM (inactive) | > 30 µM (inactive) | > 30 µM (inactive) | > 30 µM (inactive) | > 30 µM (inactive) | > 30 µM (inactive) | > 30 µM (inactive) | > 30 µM (inactive) | > 30 µM (inactive) | > 30 µM (inactive) | – | > 30 µM (inactive) |
| N#CCNC(=O)c1ccc(-c2ccnc(Nc3ccc(N4CCOCC4)cc3)n2)cc1 [MOMELOTINIB] | > 30 µM (inactive) | > 30 µM (inactive) | > 30 µM (inactive) | > 30 µM (inactive) | > 30 µM (inactive) | > 30 µM (inactive) | – | – | 0.219 µM (active) | > 30 µM (inactive) | > 30 µM (inactive) | > 30 µM (inactive) | > 30 µM (inactive) | – |
| S=C(NCc1ccc2c(c1)OCO2)N1CCN(c2ncnc3c2oc2ccccc23)CC1 [AMUVATINIB] | > 30 µM (inactive) | > 30 µM (inactive) | > 30 µM (inactive) | > 30 µM (inactive) | > 30 µM (inactive) | > 30 µM (inactive) | – | > 30 µM (inactive) | > 30 µM (inactive) | – | > 30 µM (inactive) | > 30 µM (inactive) | > 30 µM (inactive) | – |
| O=S(=O)(c1cccc2cnccc12)N1CCCNCC1 [FASUDIL] | – | > 30 µM (inactive) | – | > 30 µM (inactive) | > 30 µM (inactive) | > 30 µM (inactive) | > 30 µM (inactive) | > 30 µM (inactive) | 0.943 µM (active) | > 30 µM (inactive) | > 30 µM (inactive) | > 30 µM (inactive) | > 30 µM (inactive) | – |

Now from value to compound, other results behind:

| Kd [1] | Kd [2] | Kd [3] | Kd [4] | Kd [5] | Kd [6] | Kd [7] | Kd [8] | Kd [9] | Kd [11] | Kd [12] | Kd [13] | Kd [14] | Compound | Kd [10] |
| --- | --- | --- | --- | --- | --- | --- | --- | --- | --- | --- | --- | --- | --- | --- |
| > 30 µM (inactive) | > 30 µM (inactive) | > 30 µM (inactive) | > 30 µM (inactive) | > 30 µM (inactive) | > 30 µM (inactive) | > 30 µM (inactive) | > 30 µM (inactive) | > 30 µM (inactive) | > 30 µM (inactive) | > 30 µM (inactive) | > 30 µM (inactive) | – | CNC(=O)c1cc(COc2nnc(Nc3ccc(Cl)cc3)c3ccoc23)ccn1 [TELATINIB] | > 30 µM (inactive) |
| – | – | – | > 30 µM (inactive) | > 30 µM (inactive) | 1.22 µM (active) | – | – | – | > 30 µM (inactive) | > 30 µM (inactive) | 0.008 µM | > 30 µM (inactive) | COc1cc2c(Oc3ccc4[nH]c(C)cc4c3F)ncnc2cc1OCCCN1CCCC1 [CEDIRANIB] | – |
| – | – | – | > 30 µM (inactive) | > 30 µM (inactive) | – | – | – | – | > 30 µM (inactive) | > 30 µM (inactive) | > 30 µM (inactive) | > 30 µM (inactive) | Cn1cnc2c(F)c(Nc3ccc(Br)cc3Cl)c(C(=O)NOCCO)cc21 [SELUMETINIB] | – |
| – | – | – | > 30 µM (inactive) | > 30 µM (inactive) | – | – | – | – | > 30 µM (inactive) | > 30 µM (inactive) | > 30 µM (inactive) | > 30 µM (inactive) | CC1(C)CNc2cc(NC(=O)c3cccnc3NCc3ccncc3)ccc21 [MOTESANIB] | – |
| > 30 µM (inactive) | > 30 µM (inactive) | > 30 µM (inactive) | > 30 µM (inactive) | > 30 µM (inactive) | > 30 µM (inactive) | > 30 µM (inactive) | > 30 µM (inactive) | > 30 µM (inactive) | > 30 µM (inactive) | > 30 µM (inactive) | > 30 µM (inactive) | > 30 µM (inactive) | CNC(=O)c1cccc(-c2ccc3c(N4CCOC[C@@H]4C)nc(N4CCOC[C@@H]4C)nc3n2)c1 [VISTUSERTIB] | – |
| > 30 µM (inactive) | > 30 µM (inactive) | > 30 µM (inactive) | > 30 µM (inactive) | > 30 µM (inactive) | > 30 µM (inactive) | > 30 µM (inactive) | > 30 µM (inactive) | > 30 µM (inactive) | > 30 µM (inactive) | > 30 µM (inactive) | > 30 µM (inactive) | > 30 µM (inactive) | O=C(Nc1ccc(OC(F)(F)F)cc1)c1sccc1NCc1ccnc2ccccc12 [OSI-930] | – |
| > 30 µM (inactive) | > 30 µM (inactive) | > 30 µM (inactive) | > 30 µM (inactive) | > 30 µM (inactive) | > 30 µM (inactive) | > 30 µM (inactive) | > 30 µM (inactive) | > 30 µM (inactive) | > 30 µM (inactive) | > 30 µM (inactive) | > 30 µM (inactive) | > 30 µM (inactive) | COc1cc2ncnc(Nc3ccc(F)c(Cl)c3)c2cc1NC(=O)/C=C/CN1CCCCC1 [DACOMITINIB ANHYDROUS] | – |
| > 30 µM (inactive) | > 30 µM (inactive) | > 30 µM (inactive) | > 30 µM (inactive) | > 30 µM (inactive) | > 30 µM (inactive) | > 30 µM (inactive) | > 30 µM (inactive) | > 30 µM (inactive) | > 30 µM (inactive) | > 30 µM (inactive) | > 30 µM (inactive) | – | C#Cc1cccc(Nc2ncnc3cc4c(cc23)OCCOCCOCCO4)c1 [ICOTINIB] | – |
